Reference: EPA's ToxRefDB 2

What was measured:
dog [1] = settings: Subchronic oral toxicity in nonrodent, beagle, Feed, dose end: 90 day, group: systemic, systemic / clinical chemistry / albumin / albumin + systemic / clinical chemistry / albumin-globulin ratio / albumin-globulin ratio + …
mouse = settings: Carcinogenicity, other, Oral, Feed, dose end: 18 month, group: systemic
rat [2] = settings: Multigenerational reproductive toxicity study, other, Oral, Feed, dose end: 2 generation
rat [3] = settings: Combined chronic toxicity/carcinogenicity, other, Oral, Feed, dose end: 24 month, group: systemic
dog [4] = settings: Chronic toxicity, beagle, Oral, Feed, dose end: 52 week, group: systemic
rat [5] = settings: Subchronic oral toxicity in rodents, sprague dawley, Feed, dose end: 3 month, group: systemic
rat [6] = settings: Prenatal developmental toxicity study, sprague-dawley, Oral, Gavage/Intubation, dose end: 15 GD
rabbit = settings: Prenatal developmental toxicity study, himalayan, Oral, Gavage/Intubation, dose end: 19 GD
[7] = systemic / in life observation / body weight / body weight + systemic / in life observation / body weight / body weight gain
[8] = systemic / in life observation / body weight / body weight + systemic / in life observation / body weight / body weight gain + systemic / in…
[9] = group: offspring, systemic / in life observation / body weight / offspring (pup) weight + systemic / organ weight / spleen / absolute + systemic / organ …
[10] = group: parental, systemic / in life observation / body weight / body weight + systemic / in life observation / body weight / body weight gain + systemic / in…
[11] = systemic / pathology microscopic / kidney / atrophy
[12] = systemic / pathology microscopic / kidney / atrophy + systemic / in life observation / body weight / body weight + systemic / in life …
[13] = systemic / pathology gross / lung / foci + systemic / in life observation / body weight / body weight gain + systemic / pathology …
[14] = systemic / in life observation / body weight / body weight + systemic / in life observation / body weight / body weight gain + systemic / …
[15] = group: developmental, developmental / developmental malformation / bone / unossified + developmental / developmental malformation / bone / [other]
[16] = group: developmental, developmental / developmental malformation / bone / unossified + developmental / developmental malformation / bone / [other] + developmental…
[17] = group: maternal, systemic / in life observation / body weight / body weight gain + systemic / in life observation / food consumption / food consumption
[18] = group: developmental, developmental / developmental malformation / heart / misshapen
[19] = group: maternal, systemic / in life observation / clinical signs / hemorrhagic perineal discharge + systemic / in life observation / mortality / mortality
[20] = group: maternal, systemic / in life observation / clinical signs / hemorrhagic perineal discharge + systemic / in life observation / mortality / mortality + …

COc1cc(OC)nc(NC(=O)[N-]S(=O)(=O)c2ncccc2OCC(F)(F)F)n1.[Na+] [Trifloxysulfuron-sodium]
LEL (dog [1]): 164 mg/kg/day
LOAEL (dog [1]): 164 mg/kg/day
NEL (dog [1]): 19.8 mg/kg/day
NOAEL (dog [1]): 19.8 mg/kg/day
LEL (mouse; [7]): 24.1 mg/kg/day
LOAEL (mouse; [7]): 24.1 mg/kg/day
NEL (mouse; [8]): 5.76 mg/kg/day
NOAEL (mouse; [8]): 5.76 mg/kg/day
LEL (rat [2]; [9]): 631 mg/kg/day
LOAEL (rat [2]; [9]): 631 mg/kg/day
NEL (rat [2]; [9]): 78.8 mg/kg/day
NOAEL (rat [2]; [9]): 78.8 mg/kg/day
LEL (rat [2]; [10]): 631 mg/kg/day
LOAEL (rat [2]; [10]): 631 mg/kg/day
NEL (rat [2]; [10]): 78.8 mg/kg/day
NOAEL (rat [2]; [10]): 78.8 mg/kg/day
LEL (rat [3]; [11]): 99.3 mg/kg/day
LOAEL (rat [3]; [11]): 99.3 mg/kg/day
NEL (rat [3]; [12]): 23.7 mg/kg/day
NOAEL (rat [3]; [12]): 23.7 mg/kg/day
LEL (dog [4]; systemic / pathology gross / lung / foci): 15 mg/kg/day
NEL (dog [4]; [13]): 6.51 mg/kg/day
NOAEL (dog [4]; [13]): 51.1 mg/kg/day
LOAEL (dog [4]; systemic / pathology gross / lung / foci + systemic / pathology microscopic / lung / thickened): 123 mg/kg/day
LEL (rat [5]; systemic / clinical chemistry / cytochrome p450, nos / cytochrome p450, nos): 239 mg/kg/day
LOAEL (rat [5]; [7]): 1050 mg/kg/day
NEL (rat [5]; [14]): 65.7 mg/kg/day
NOAEL (rat [5]; [14]): 507 mg/kg/day
LEL (rat [6]; [15]): 30 mg/kg/day
NEL (rat [6]; [15]): < 30 mg/kg/day
LOAEL (rat [6]; [16]): 1000 mg/kg/day
NOAEL (rat [6]; [16]): 300 mg/kg/day
LOAEL (rat [6]; [17]): 1000 mg/kg/day
NEL (rat [6]; [17]): 30 mg/kg/day
NOAEL (rat [6]; [17]): 300 mg/kg/day
LEL (rat [6]; group: maternal, systemic / in life observation / food consumption / food consumption): 300 mg/kg/day
LEL (rabbit; [18]): 100 mg/kg/day
LOAEL (rabbit; [18]): 100 mg/kg/day
NEL (rabbit; [18]): 50 mg/kg/day
NOAEL (rabbit; [18]): 50 mg/kg/day
LEL (rabbit; [19]): 250 mg/kg/day
LOAEL (rabbit; [19]): 250 mg/kg/day
NEL (rabbit; [20]): 100 mg/kg/day
NOAEL (rabbit; [20]): 100 mg/kg/day
